{
  "source": "patent US8022103B2",
  "about": "“Ester prodrugs of prostratin and related phorbol compounds” (Salvia Sciences, Inc., priority 2005, dated 2011)",
  "test_system": "HIV-1 isolates Ba-L and IIIB and the SIV isolate mac251",
  "assay": "PBMC-based assay, summary over all three isolates",
  "type": "cell-based",
  "details": "read-out: IC50 values against all three isolates",
  "procedure": "Compounds SA-101A and SA-101B were tested for antiviral activity against HIV-1 in peripheral blood mononuclear cells (PBMC) acutely infected with the HIV-1 isolates. PBMCs were derived from normal HIV-1 negative donors, and cultured under conditions which promote cell survival and HIV replication. Fresh human blood was obtained commercially from Biological Specialty Corporation (Colmar, Pa.). The low passage clinical isolates HIV-1Ba-L, HIVIIIB, and SIVmac251 were from the NIAID AIDS Research and Reference Reagent Program. Immediately before use, pre-titered aliquot of the viruses were removed from storage in a freezer (−80° C.) and thawed rapidly to room temperature in a biological safety cabinet. Phytohemagglutinin (PHA-P) was obtained from Sigma (St. Louis, Mo.) and recombinant IL-2 was obtained from R&D Systems Inc. (Minneapolis, Minn.). […]\nPMBC assay. […] Pooling (mixing) of mononuclear cells from more than one donor is used to minimize the variability observed between individual donors, which results from quantitative and qualitative differences in HIV infection and overall response to the PHA and IL-2 of primary lymphocyte populations. […]",
  "data": [
    {"compound": "CC(=O)O[C@@]12C[C@@H](C)[C@@]3(O)[C@@H](C=C(CO)C[C@]4(O)C(=O)C(C)=C[C@@H]34)[C@@H]1C2(C)C", "note": "[SA-101A, 12-deoxyphorbol 13-acetate]", "values": [
      {"measurement": "IC50", "value": "0.05 to 0.39", "unit": "µg/mL"}
    ]}
  ]
}
